Measurements published in US20070015779A1, “COMPOSITIONS AND TREATMENTS FOR INHIBITING KINASE AND/OR HMG-COA REDUCTASE” (priority 2005, published 2007).
pIC50: −log10 of the molar value. Where “and” joins values, the source holds several entries; their conditions need not be identical. Equal values may be shown once. Where a name gives a salt, the structure may show the parent alone.

Key:
[1] = test system: oxazolone-induced mouse ear swelling; assay: Model for inhibition of topical inflammation (oxazolone-induced mouse ear swelling); assay type: in vivo; conditions: BALB/c mice, ear thickness 24 hours after oxazolone challenge
Description: Model for Inhibition of Topical Inflammation. […] Left ears were untreated. The thickness of both ears of each animal was measured with a Dyer model micrometer gauge 24 hours after oxazolone challenge, and the net increase in thickness of right ears versus left ears was calculated for each animal. Percent inhibition was calculated according to the formula: [(Iv−It)/Iv]×100, where Iv and It respectively refer to the average net increase in right ear thickness (mm) for vehicle and candidate compound treated mice.

[2] = target: T1, human recombinant p38α protein kinase (Homo sapiens, UniProt Q16539); assay: Human p38α MAP kinase inhibition assay (cell-free); assay type: biochemical; conditions: inhibition of phosphorylation of myelin basic protein by recombinant human p38α MAP kinase by 50%; Table III; read-out: IC50 p38α MAPK
T1 construct: purchased UBI (Upstate Biotechnology) 14-251; host or cells: E. coli
Description: In vitro cell-free p38α MAP kinase inhibition assays were conducted by the method as described in Clerk et al., FEBS Lett., 426:93-96 (1998) for a number of lactones in formulas I/IIa/IIb. Briefly, human recombinant p38α protein kinase expressed in E. coli (UBI #14-251) was used. Myelin basic protein (MBP, UBI #13-110) was employed as substrate, and microtiter plate wells were coated with MBP (0.01 mg/ml) overnight at 4° C. Candidate compound and/or vehicle was preincubated with 0.075 μg/mL enzyme in modified HEPES buffer pH 7.4 at 25° C. for 15 minutes. The reaction was initiated by addition of 100 μM ATP and allowed to proceed for another 60 minutes. The reaction was terminated by aspirating the solution. Phosphorylated MBP was detected by incubation with a mouse monoclonal IgG2a anti-phosphoMBP antibody. Bound anti-phosphoMBP antibody was quantitated by incubation with a HRP conjugated goat anti-mouse IgG.

[3] = target: T2, rat liver HMG-CoA reductase (Rattus norvegicus, UniProt P51639); assay: Cell-free HMG-CoA reductase inhibition assay; assay type: biochemical; conditions: concentration required to inhibit rat liver HMG-CoA reductase by 50%; read-out: IC50 HMG-CoA R
T2 sequence (P51639 1-887): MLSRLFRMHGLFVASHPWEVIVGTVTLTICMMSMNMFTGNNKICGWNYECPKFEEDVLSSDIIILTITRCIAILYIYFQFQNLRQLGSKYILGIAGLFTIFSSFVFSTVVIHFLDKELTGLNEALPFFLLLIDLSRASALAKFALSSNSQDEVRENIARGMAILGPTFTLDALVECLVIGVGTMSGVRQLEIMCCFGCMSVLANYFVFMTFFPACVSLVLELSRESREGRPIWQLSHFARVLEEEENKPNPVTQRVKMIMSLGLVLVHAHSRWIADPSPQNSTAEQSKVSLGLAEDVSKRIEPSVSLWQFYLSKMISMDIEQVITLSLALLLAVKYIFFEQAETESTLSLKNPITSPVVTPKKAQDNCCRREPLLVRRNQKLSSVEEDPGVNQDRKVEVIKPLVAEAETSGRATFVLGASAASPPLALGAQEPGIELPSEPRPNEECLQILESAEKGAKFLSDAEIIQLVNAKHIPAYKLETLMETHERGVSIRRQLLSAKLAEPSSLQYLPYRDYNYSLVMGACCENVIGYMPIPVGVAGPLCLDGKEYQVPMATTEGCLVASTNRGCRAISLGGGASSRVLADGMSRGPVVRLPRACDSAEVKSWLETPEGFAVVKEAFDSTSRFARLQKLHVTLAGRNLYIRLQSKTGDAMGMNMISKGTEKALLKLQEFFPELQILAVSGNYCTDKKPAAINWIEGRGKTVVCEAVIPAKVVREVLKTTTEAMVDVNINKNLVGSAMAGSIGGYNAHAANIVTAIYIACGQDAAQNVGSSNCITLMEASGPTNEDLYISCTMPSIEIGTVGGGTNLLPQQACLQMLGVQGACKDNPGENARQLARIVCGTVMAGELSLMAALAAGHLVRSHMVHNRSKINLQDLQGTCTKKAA
Description: An example of a cell-free HMG-CoA reductase assay involves radiometric procedures described in Shum et al., Ther. Drug Monit. 20:41-49 (1998), incorporated herein by reference. Briefly, about 150 μg/mL of HMG-CoA reductase can be incubated with a candidate compound, together with about 12 μM [^14C]HMG-CoA and about 200 μM NADPH in about 200 μL 0.2M phosphate buffer (pH about 7.2) for about 0.5 h at about 37° C. The [^14C]mevalonate that forms can be converted under acidic conditions to [^14C]mevalonolactone and separated from un-reacted substrate, for example, by ion-exchange chromatography, and then quantified, for example, by liquid scintillation counting.

[4] = test system: LPS-induced TNF-α release from human peripheral blood mononuclear cells; assay: Whole cell LPS-stimulated TNF-α release assay; assay type: cell-based; conditions: inhibition of LPS-induced TNF-α release from human peripheral blood mononuclear cells by 50%
Description: The procedure as described in Welker et al., Int. Arch. Allergy and Immunol. 109:110-115 (1996) can be followed. Briefly, a candidate compound and/or vehicle can be preincubated with human peripheral blood mononuclear leukocytes (PBML, 5×10^5/ml) cells in AIM-V medium pH 7.4 for 2 hours. Lipopolysaccharide (LPS, 25 ng/ml) can be added to stimulate the cells, which can be incubated overnight at 37° C. TNF-α cytokine levels in the conditioned medium can then be quantitated using a sandwich ELISA kit.

[5] = dose 2 × 0.3 mg topical to right ear
[6] = dose 2 × 1 mg topical to right ear
[7] = dose 2 × 2 mg topical to right ear

T1 sequence (Q16539 whole entry): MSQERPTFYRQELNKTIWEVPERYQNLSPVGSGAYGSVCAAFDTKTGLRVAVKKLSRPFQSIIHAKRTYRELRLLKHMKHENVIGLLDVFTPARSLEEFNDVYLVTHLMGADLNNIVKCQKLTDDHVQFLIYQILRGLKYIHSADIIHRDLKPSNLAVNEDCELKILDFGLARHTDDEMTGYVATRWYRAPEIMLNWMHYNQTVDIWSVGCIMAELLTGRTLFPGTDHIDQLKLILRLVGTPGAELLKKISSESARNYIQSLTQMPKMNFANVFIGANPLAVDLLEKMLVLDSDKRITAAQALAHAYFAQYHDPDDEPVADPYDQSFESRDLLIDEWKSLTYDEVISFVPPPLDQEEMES

Compound	% Inh. [1, 5] [%]	% Inh. [1, 7] [%]	other results
CC(C)c1c(C(=O)Nc2ccccc2)c(-c2ccccc2)c(-c2ccc(F)cc2)n1CC[C@@H]1C[C@@H](O)CC(=O)O1 [Atorvastatin lactone]	40	50	% Inh. ([1]; dose 2 × 0.3 mg topical to right ear, listed as atorvastatin lactone): 50% and 58% and 40%; % Inh. [1, 6]: 58%
CC(C)c1c(C(=O)Nc2ccccc2)c(-c2ccccc2)c(-c2ccc(F)cc2)n1CC[C@@H](O)C[C@@H](O)CC(=O)O [Atorvastatin sodium]	9	63	% Inh. [1, 6]: 31%
CCC(C)c1nn(-c2ccnc(Nc3ccccc3)c2)c(-c2ccc(F)cc2)c1/C=C/[C@@H](O)C[C@@H](O)CC(=O)O (stereo partly drawn) [Example 10a, (3R,5S,E)-7-(3-sec-butyl-5-(4-fluorophenyl)-1-(2-(phenylamino)pyridin-4-yl)-1H-pyrazol-4-yl)-3,5-dihydroxyhept-6-enoic acid calcium salt]			pIC50 [2]: 4.96; pIC50 [3]: 8.52; pIC50 [4]: 4.68
O=C(O)C[C@H](O)C[C@H](O)CCc1c(-c2ccccc2)nn(-c2ccnc(Nc3ccccc3)n2)c1-c1ccccc1 [Example 11c, (3R,5R)-7-(3,5-diphenyl-1-(2-(phenylamino)pyrimidin-4-yl)-1H-pyrazol-4-yl)-3,5-dihydroxyheptanoic acid]			pIC50 [4]: 4.74
CC(C)n1c(/C=C/C(O)CC(O)CC(=O)O)c(-c2ccc(F)cc2)c2ccccc21 (centres unmarked) [Fluvastatin sodium]	28		
COc1ccc2c(c1)c(CC(=O)O)c(C)n2C(=O)c1ccc(Cl)cc1 [Indomethacin]	44		
O=C([O-])C[C@H](O)C[C@H](O)/C=C/c1c(C2CC2)nc2ccccc2c1-c1ccc(F)cc1.O=C([O-])C[C@H](O)C[C@H](O)/C=C/c1c(C2CC2)nc2ccccc2c1-c1ccc(F)cc1.[Ca+2] [Pitavastatin calcium]	9	60	
CC[C@H](C)C(=O)O[C@H]1C[C@H](O)C=C2C=C[C@H](C)[C@H](CC[C@@H](O)C[C@@H](O)CC(=O)O)[C@H]21 [Pravastatin sodium]	24		
CC(C)c1nc(N(C)S(C)(=O)=O)nc(-c2ccc(F)cc2)c1/C=C/[C@@H](O)C[C@@H](O)CC(=O)O [Rosuvastatin sodium]	20		
